This is an account of results in patent US6844306B2, “Water-soluble, chlorhexidine-containing compositions and use thereof” (Degussa AG, priority 2000, dated 2005).

Structures are written as SMILES.

For series [1] the following is noted: cited from earlier work.
The text on series [2]:
Ion concentrations exceeding the maximum values established by the solubility product should lead to precipitations.

As for `CCCCCCCCCCCCCCCC[N+](C)(C)C.[Br-]` [cetrimide, N-cetyl-N,N,N-trimethylammonium bromide], the water solubility result in series [1] is given as “approx. 67 g/l”.
With `Br.Br.N=C(NCCCCCCNC(=N)NC(=N)Nc1ccc(Cl)cc1)NC(=N)Nc1ccc(Cl)cc1` [chlorhexidine dibromide], in series [2], the “bromide ions in saturated chlorhexidine bromide solution” value is listed as around 450 mg per liter and the “chlorhexidine dication in saturated chlorhexidine bromide solution” value is listed as “approximately 1400 mg per liter”.
